The nature of data set [1]: Circular dichroism, secondary structure content (CONTIN/LL). The format is physicochemical. Conditions: for Secondary Structure Random coil / Secondary Structure α-Helix / Secondary Structure β-Sheet: 0.3mg in 1mL, 20°C, far-UV CD, CONTIN/LL. As for the experimental part:
We studied the structural properties of the peptides in vitro, using circular dichroism (see Materials and Methods). The far-UV CD spectra for NLS-CE, NLS-α and NLS-α-CE in water matched the characteristics of a random coil conformation.
Circular dichroism spectra were recorded on a ChirascanTM CD Spectrometer (Applied Photophysics, UK) equipped with a peltier temperature controller. 0.3mg of each peptide was dissolved in 1mL of water or 50% aqueous trifluoroethanol and placed in quartz cuvettes of 0.1cm path length. Far-UV CD spectra were collected from 185 to 250 nm at 20°C. Spectra were averaged over 5 scans and the averaged blank spectra of solvents were subtracted. Ellipticity is reported as mean residue molar ellipticity and recorded in terms of molar elipticity [θ] (deg cm^2 dmol^−1). CONTIN/LL within the CDPro analysis software program was used to estimate the secondary structure content of the peptides.
(In general: Circular dichroism is the unequal absorption of left and right circularly polarised light.)

Data set [2] deals with Escherichia coli strain DH5α. In words: microbe, parasite or virus in culture. The format is cell-based. The following applies: for MIC: DH5α, 24 h, read-out: E. coli MIC for 50% inhibition. The source says: If CPP, DNA binding and AMP activities are compatible, the designed peptides should inhibit bacterial growth. Here we exposed E. coli DH5α cells to varying low concentrations of the designed peptides as well as several controls (see Fig 4). […] To test whether α-factor was important for AMP activity we also tested pure α-factor, pure NLS, the optimized NLS fitting CPP rules (NLS-CE) and the Iztli-1 peptide, a previously reported peptide with an embedded α-factor specifically designed to have antibacterial activity. […] A linear trend could be observed between concentration and growth inhibition (regression lines with standard deviations shown in Fig 6). […] The minimal inhibitory concentrations for E. coli are reported in Table 2 (growth curves are shown in S4 Fig).
Fig 6 Antibacterial activity. DH5α E. coli cells were treated with varying concentrations of peptides ranging from 0 to 16 μM for the peptides and 0 to 48 μM for Ampicillin. The relative area under the growth curve measured the growth inhibition. Measurements from four repetitions distributed onto two different plates are shown as dots colored by their respective concentrations. Linear regressions are shown as blue lines and their respective standard errors as blue shades. Dashed lines indicate the mean area under the curve for the H2O controls and its 50% value respectively. Minimal inhibitory concentrations to achieve 50% or 100% of cell growth inhibition are reported.
Escherichia coli strain DH5α was grown for 12 hours to mid-log phase and diluted to 8·10^5 cells/ml by using the reference OD obtained by absorption spectroscopy. Each sample 100μL culture was treated with 50μL solution containing the respective peptide in the desired concentration or water in the case of the controls. Growth curves were measured on two 96 well half area plates with two replicates each followed for 24h using a plate reader (Synergy, USA). In order to minimize plate-specific effects due to variations in loading time or initial cell numbers, different plates measurements were normalized by the time-point where the water control samples reached their half-maximal OD before combining. The respective minimum from each growth curve was subtracted from the normalized data from individual or combined plates. Areas under the curves were obtained by applying a linear interpolation to the OD curves, which was then integrated exactly. Growth rates were obtained by log-transforming the growth curves, identifying the exponential phase by the linear parts in that log-transformation (OD600 between 0.05 and 0.5) and performing a linear regression in the exponential phase with the slope denoting the respective growth rate. All mentioned methodology was implemented in R (www.r-project.org) and is available as open source at http://github.com/cdiener/dcf.
Using the slope of the linear regressions determined in these experiments, we estimated the minimal inhibitory concentration (MIC) for E. coli of our 3 CPP designed peptides (α-NLS-C, NLS-α-CE and chimera) and tested it experimentally.

For a further data set, the system named is BY4741 yeast cells. Nature of the data set: Internalization assay in yeast, confocal microscopy. The format is cell-based, Saccharomyces cerevisiae. The following applies: TAMRA-labeled versions, 60 μM, BY4741, pictures at 0, 10 and 20 min. From the text:
We first evaluated whether the designed peptides retained the activity of the templates. The presence of the NLS sequence may locate peptides in the nuclei of cells; for that to happen first the peptides have to be internalized. […] For yeast cells, confocal microscopy was used to evaluate CPP activity in our peptides (see Fig 2).
Fig 2 Designed peptides internalized into yeast cells. (A-F) Internalization assays in BY4741 yeast cells for peptide controls where Arg and Lys residues were replaced by Glu residues (A-C) and the original peptides (D-F). All peptides were used at 60 μM (final concentration) and labeled with the TAMRA fluorophore (see Table 1 and Materials and Methods for further details).
All 6 fluorogenic peptides (TAMRA-peptides, see Table 1) were prepared to 600μM in water as a 10X stock solution. Although all the peptides were apparently soluble in water, they all formed aggregates under the microscope. […] These samples were observed under a multi-photon confocal microscope (Olympus FV1000) and pictures were recorded at 0, 10 and 20 min after the peptide addition. […] Bright field images were chosen from the in-focus z-stack, whereas TAMRA images denote the average fluorescence across the entire z-stack to obtain the fluorescence inside the entire cell volume. Images were analyzed using Fiji (http://fiji.sc/Downloads#Fiji).

Where [3] appears, read: E. coli DH5α, peptides 0 to 16 μM.

The record followed here is publication PMC4838304, “Effective Design of Multifunctional Peptides by Combining Compatible Functions” (PLoS Computational Biology, 2016).

Ends that are not written are not given here. Bounds are passed on as bounds.

As to “FRKWRRKPKKKRKVWWRKVKRRWHWLQLKPGQPMY [NLS-α-CE]”, in data set [1] (50% TFE), the “Secondary Structure Random coil” value is reported as 59%, the “Secondary Structure α-Helix” value stood at 10% and the “Secondary Structure β-Sheet” value is 31%. In addition, the “aggregation suggested by decrease in negative ellipticity” value in data set [1] (50% TFE, CD spectra) is listed as “TFE promoted aggregation of the peptides”. In addition, in data set [1] (water), the “Secondary Structure Random coil” value came to 64%, the “Secondary Structure α-Helix” value was 6% and the “Secondary Structure β-Sheet” value is on record as 30%. For the same sequence, the MIC in data set [2] is given as <2 µM. In data set [2] (setting [3]), the “concentration abolishing E. coli growth completely” value amounted to 2 µM. Also, the “internalization into yeast cells” value in the data set on BY4741 yeast cells is “quickly accumulate in the cell membrane and inside the yeast cells”.
“KRRWRFVWMNPKKKRKVPPWPYLLWWHWLQLKPGQPMY [chimera]”: in data set [1] (50% TFE), the “Secondary Structure Random coil” value is given as 48%, the “Secondary Structure α-Helix” value is reported as 24% and the “Secondary Structure β-Sheet” value was determined as 28%. Further, in data set [1] (water), the “Secondary Structure Random coil” value amounted to 59%, the “Secondary Structure α-Helix” value amounted to 8% and the “Secondary Structure β-Sheet” value was determined as 33%. The MIC in data set [2] worked out at 4 µM. The “concentration showing partial growth inhibition” value in data set [2] (setting [3]) stood at 2 µM. Also, the “internalization into yeast cells” value in the data set on BY4741 yeast cells is “quickly accumulate in the cell membrane and inside the yeast cells”.
